The source made the active and inactive calls. The calls are words filed in the database; no cut-off is given here.

Type in all cases: cell-based
Series [1] deals with T1, Homeobox protein Meis1 (Homo sapiens) (UniProt O00470).
T1 sequence (whole entry): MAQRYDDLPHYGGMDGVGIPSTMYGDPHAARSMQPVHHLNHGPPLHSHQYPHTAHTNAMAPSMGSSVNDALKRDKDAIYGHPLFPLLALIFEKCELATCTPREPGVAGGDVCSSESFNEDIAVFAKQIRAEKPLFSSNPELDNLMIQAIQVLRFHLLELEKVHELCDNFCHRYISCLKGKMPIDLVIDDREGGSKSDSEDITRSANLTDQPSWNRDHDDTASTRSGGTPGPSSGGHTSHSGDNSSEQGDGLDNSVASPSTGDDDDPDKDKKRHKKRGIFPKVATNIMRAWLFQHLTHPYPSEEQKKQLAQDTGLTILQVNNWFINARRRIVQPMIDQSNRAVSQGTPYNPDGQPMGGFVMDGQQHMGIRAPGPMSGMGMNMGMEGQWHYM
Kind of series: Inhibition of MEIS1 (unknown origin) expressed in HEK293T cells co-expressing MEIS-Luc-pGL2 assessed as luciferase activity at 10 uM incubated for 48 hrs by luciferase reporter assay related to […] control. The arrangement: scale not given: the % may be the effect or the level left. On the technique in general: In a reporter assay the amount or activity of a reporter protein is the signal.

Series [2] concerns the target T1, Homeobox protein Meis1 (Homo sapiens). Kind of series: Inhibition of MEIS1 (unknown origin) expressed in HEK293T cells co-expressing MEIS-Luc-pGL2 assessed as downregulation of Meis1 gene expression measuring mRNA level at 10 uM incubated for 2 days by RT-qPCR analysis. More on the design: scale not given: the % may be the effect or the level left. The settings on record: time 2.0 day.

A short description of series [3]: Cytotoxicity against HDF assessed as cell viability at 10 uM incubated for 72 hrs by MTS assay. The settings on record: human, HDF (NHDF) cells, read-out: Activity. In general terms: Tetrazolium dyes change colour on reduction, which living cells bring about.
Series [4] has as its target T1, Homeobox protein Meis1 (Homo sapiens). The series is described as follows: Inhibition of MEIS1 (unknown origin) expressed in HEK293T cells co-expressing MEIS-Luc-pGL2 assessed as downregulation of Hif-Ialpha gene expression measuring mRNA level at 10 uM incubated for 2 days by RT-qPCR analysis. The settings on record: time 2.0 day. Background: Quantitative PCR measures a nucleic acid by following its amplification.

For series [5] the target is unchanged. Kind of series: Inhibition of MEIS1 (unknown origin) expressed in HEK293T cells co-expressing MEIS-Luc-pGL2 assessed as luciferase activity at 10 uM incubated for 48 hrs by luciferase reporter assay related to protein content. More on the design: scale not given: the % may be the effect or the level left.
The target is the same in series [6]. The series is described as follows: Inhibition of MEIS1 (unknown origin) expressed in HEK293T cells co-expressing MEIS-Luc-pGL2 assessed as downregulation of p21 gene expression by measuring mRNA level at 10 uM incubated for 2 days by RT-qPCR analysis. More on the design: scale not given: the % may be the effect or the level left. The settings on record: time 2.0 day.

`Cc1cccc(NC(=O)c2ccc(OCC(=O)NCc3ccc(F)cc3)cc2)c1C`: the Activity in series [1] was 36%; in series [2] it was 24.3%; in series [5], 40%; in series [6], 25.6%. Further, the viability at 72 h, 10 µM in series [3] amounted to 90.4%. Besides, in series [4], the result was Active.

As for `Cc1cccc(NC(=O)c2ccc(OCC(=O)NCc3ccccc3Cl)cc2)c1C`, the Activity in series [1] was 34%; in series [2] it was 13.7%; in series [5], 43%; in series [6] it was 25.3%. Moreover, the viability at 72 h, 10 µM in series [3] worked out at 64.8%. Besides, the result in series [4] was Active.

These data come from ChEMBL document CHEMBL4828764, “Lead Optimization and Structure-Activity Relationship Studies on Myeloid Ecotropic Viral Integration Site 1 Inhibitor” (J Med Chem, 2021).
